Consider 4 compounds from US20110092448A1, “Peptide Conjugate for Oral Delivery of Hydrophilic Peptide Analgesics” (METABOLIC PHARMACEUTICALS LIMITED, priority 2005, published 2011).

Like-named read-outs stand apart in the source and are kept apart here.

Data set [1] deals with blood calcium levels in normal CD-1 mice. Briefly: Blood (serum) calcium levels in normal mice after EP-PTH. The note with it: oral gavage 40, 200 or 400 μg/kg, 1 h. In kind it is in vivo, mouse. How it is done: (§1) EP-PTH was administered orally to normal mice and the anabolic action on blood calcium levels were measured. More specifically, after an initial blood sampling at time zero, groups of normal CD-1 mice were administered EP-PTH via either oral gavage (40 μg/kg, 200 μg/kg or 400 μg/kg) or subcutaneous injection (40 μg/kg) as described in Example 3. One hour after the administration of the EP-PTH and a second blood sample was taken. The serum calcium levels of blood samples were then assessed by an enzymatic method.
(§2) The person skilled in the art will understand that the method of estimating oral availability by identifying an oral dose response curve in a pharmacodynamic animal experiment and comparing with the parenterally administered dose response curve may be used in assessing the application of the invention to other parent peptides.

Test in data set [2]: as above
Type of data set: in vivo, mouse. The note with it: mouse, serum; CD-1 mice, oral vs subcutaneous; read-out: oral bioavailability based on pharmacodynamic measurements. The protocol: as §1, §2

The conditions of data set [3]: cited from earlier work.
The subject of data set [4] is STZ diabetic Sprague-Dawley rats with neuropathic pain. The note with it: rat, in vivo, po.

Usually bioavailability stands for dose-corrected exposure relative to a reference, in per cent. As for `CC[C@H](C)[C@H](NC(=O)[C@H](CCC(=O)O)NC(=O)[C@H](CO)NC(=O)[C@@H](NC(=O)[C@H](CO)NC(=O)[C@H](CCC(N)=O)NC(=O)[C@@H](NC(=O)[C@@H](NC(=O)[C@H](CCCNC(=N)N)NC(=O)[C@@H](N)CC(C)C)[C@@H](C)CC)C(C)C)C(C)C)C(=O)N[C@@H](CCC(N)=O)C(=O)N[C@@H](CC(C)C)C(=O)N[C@@H](CCSC)C(=O)N[C@@H](Cc1c[nH]cn1)C(=O)N[C@@H](CC(N)=O)C(=O)N[C@@H](CC(C)C)C(=O)NCC(=O)N[C@@H](CCCCN)C(=O)N[C@@H](Cc1c[nH]cn1)C(=O)N[C@@H](CC(C)C)C(=O)N[C@@H](CC(N)=O)C(=O)N[C@@H](CO)C(=O)N[C@@H](CCSC)C(=O)N[C@@H](CCC(=O)O)C(=O)N[C@@H](CCCNC(=N)N)C(=O)N[C@H](C(=O)N[C@@H](CCC(=O)O)C(=O)N[C@@H](Cc1c[nH]c2ccccc12)C(=O)N[C@@H](CC(C)C)C(=O)N[C@@H](CCCNC(=N)N)C(=O)N[C@@H](CCCCN)C(=O)N[C@@H](CCCCN)C(=O)N[C@@H](CC(C)C)C(=O)N[C@@H](CCC(N)=O)C(=O)N[C@@H](CC(=O)O)C(=O)N[C@H](C(=O)N[C@@H](Cc1c[nH]cn1)C(=O)N[C@@H](CC(N)=O)C(=O)N[C@@H](Cc1ccccc1)C(=O)O)C(C)C)C(C)C` [EP-PTH], the “effect on blood calcium levels compared to vehicle control” value in data set [1] was “dose-dependent effect”. Also, the bioavailability in data set [2] is about 10%.

With “AOD9604: AOD peptide derived from the C-terminal sequence of human growth hormone, earlier applications (YLRIVQCRSVEGSCGF)”, the oral bioavailability entry in data set [3] (earlier applications PCT/AU98/00724, PCT/AU01/00354, PCT/AU00/01362) is on record as “substantially orally bioavailable”. For the compound “Tyr-Leu-Arg-Ile-Val-Gly-Cys-Cys-Ser-Asp-Pro-Arg-Cys-Asn-Tyr-Asp-His-Pro-Glu-Ile-Cys-NH2 [ACV3.2]”, the oral availability entry in data set [4] is on record as “substantial oral availability”. For the same compound, in data set [4] (1 mg/kg), the “analgesic effect vs vehicle group” value is on record as “significant difference”. As to “parathyroid hormone: hormone known to regulate levels of blood calcium; parent peptide of EP-PTH”, in data set [3] (reported), the oral bioavailability entry is reported as “about 0.3%”.
